Results: publication PMC4887995, “Small molecule dual-inhibitors of TRPV4 and TRPA1 for attenuation of inflammation and pain” (Scientific Reports, 2016)
“Also recorded” adds a separate entry of the source.

Tests used:
[1] = test system: formalin-evoked trigeminal irritant pain; assay: Trigeminal formalin irritant pain model, WT mice; assay type: in vivo, mouse; conditions: 10 mg/kg i.p.; for pain behavior, delayed (late neural) phase: 15 min before 4% formalin, 15–45 min
Procedure: Figure 7 16-8 and 16-19 effectively attenuate formalin-evoked trigeminal irritant pain. (A) Time-course of nocifensive behavior in WT mice following whisker-pad injection of 4% formalin. The mice were pre-injected (i.p., 10 mg/kg; 15 min before formalin) with GSK205, 16-8 or 16-19. Note effective reduction of nocifensive behavior in the late “neural” phase by compounds 16-8, 16-19, not by GSK205. (B) Cumulative response binned into 3 phases: acute phase (0–5 min), interphase (5–15 min), and late “neural” phase (15–45 min). […] (C) As in (A), but also including Trpv4^−/− mice. Compounds were applied i.p. 15 min before formalin challenge, at 10 mg/kg except established TRPA1 blocker, A967079 (25 mg/kg). Previously-established attenuated nocifensive behavior in early and late phase in Trpv4^−/− mice was recapped, which was reduced further by TRPA1 blocker, A967079. (D) As in (B), plus inclusion of Trpv4^−/− mice. Robust effects of TRPA1-blocker, A967079, were mimicked equi-potently by 16-8 and 16-19 for early phase, and by 16-8 for late phase, partially by 16-19 for late phase. (A,C) show averaged behavioral metrics per time-point, bars in (B,D) represent mean ± SEM; for (D) ^*P < 0.05; ^#P < 0.005, one-way ANOVA; for all panels n = 5–8 mice/group. Implementation of this model was conducted as described previously. Video-taped nocifensive behavior was assessed by investigators blinded to genotype and treatment.

[2] = Compound concentration in organs and plasma by LC-MS/MS; assay type: in vivo, mouse; conditions: 10 mg/kg i.p.
Procedure: Mice were treated with 10 mg/kg i.p. of the respective inhibitor. Post-euthanasia harvested tissue was frozen in liquid nitrogen and stored at −80 °C for further analysis.
Frozen tissue samples were partially thawed and cut into 1 mm slices, 5–15 mg tissue, 2-fold excess water (mass/vol.), 6-fold excess acetonitrile (16-… compounds) or methanol (GSK205) containing appropriate amount of internal standard, and 2.5 mm zirconia/silica bead (Biospec Products Inc.) were added to 500- μL polypropylene (PP) conical tube, homogenized in a Fast-Prep apparatus (Thermo-Savant) at speed “4” for 20 sec at room temp, and centrifuged at 13,600 g for 5 min at room temp. Depending on the expected concentration range of the measured compound, the supernatant was diluted 1/4–1/20 (in Mobile phase A, see below) and placed in autosampler for LC-MS/MS analysis.
The LC-MS/MS assay for 16-… compounds and GSK205 was developed on an Agilent 1200 series LC system interfaced with Applied Biosystems API 5500QTrap, a hybrid triple quadruple-linear trap MS/MS spectrometer. Analyst (version 1.6.1) software was used for mass parameters tuning, data acquisition, and quantification. LC column: 3 × 4 mm RP C18 (Phenomenex, AJ0-4287) was operated at 35 °C. Mobile phase A: 0.1% formic acid, 2% acetonitrile, in LC/MS-grade water; mobile phase B: acetonitrile; flow rate: 1 mL/min, 1:1 MS/MS:waste split. Run time was 4 min. Diverter valve was used to send flow to MS/MS only between 1.2 and 2.5 min. The elution gradient was: 0–0.5 min, 1%B; 0.5–1.2 min, 1–95%B; 1.2–1.5 min, 95%B; 1.5–1.6 min, 95–1%B. Autosampler was operated at 4 °C; injection volume was kept at 10–50 μL. Electrospray ionization (ESI) source parameters were: positive ionization mode, curtain gas flow = 30, ionization potential = 5500 V, temperature = 500 °C, nebulizing gas 1 flow = 30, nebulizing gas 2 = 30, declustering potential = 20 V. 16-… compounds and GSK205 were individually infused as 100 nM solutions in 50%A/50%B at 10 μL/min flow rate and parameters optimized to provide maximal ion count for “parent” and collision-produced (“daughter”) MS/MS ions. Parent/daughter quantifier [qualifier] ions utilized: GSK205 (401.1/280[370]), 16-8 (400.1/279.1[91.1], 16-16 (387.1/280[105]), 16-18 (415.2/280[370], 16-19 (414.1/279.2[91.1]. Standard (analyte of interest)/internal standard pairs utilized: GSK205/16-16, 16-8/16-16, 16-18/GSK205, 16-19/16-8.
Calibration samples (n = 6) were prepared by adding pure standard of the measured compound to tissue homogenate (tissue + 2-fold excess water, mass/vol) in the appropriate range needed for the particular dosing regime. Organs studied were analyzed alongside the study samples. […] Peak integration, calibration, and quantification was performed within Analyst software. […]

[3] = Preliminary in-vivo cardiac, renal and hepatic toxicity; design: species or system mouse; conditions: 10 mg/kg i.p., vs vehicle; for heart rate (EKG): over 1 h at the 6 h time-point
Procedure: Mice were treated i.p. with compounds 16-8 and 16-19 (10 mg/kg). Hepatic and renal integrity were analyzed by alanine amino-transferase- and creatinine assays (Sigma), both relying on measurement of absorbance at λ = 570 nm in 96-well micro-titerplates. 8 technical replicates per animal were performed.
For heart rate assessment in mice treated with 16-8 and 16-19, animals were fitted with two electrodes, one to the ear, via clip, one to the rib-cage, using firm adhesive. Heart rate was monitored and analyzed using axoscope and clampfit 9.2 software (Molecular Devices)

Structure (SMILES)	pain behavior, delayed (late neural) phase [1]	concentration in non-nervous tissue, especially liver and kidney, comparison of compounds ([2]; 1 h)	concentration at 6 h time-point compared to 1 h time-point ([2]; several organs)	concentration at 24 h time-point ([2]; several organs)	heart rate (EKG) [3]	serum alanine-amino-transferase (ALT) [3]	serum creatinin [3]	diminishing of pain behavior, delayed phase [1]	concentration in fat and pancreas ([2]; after one hour)
CCN(CCc1ccc(Nc2nc(-c3ccccc3)cs2)cc1)Cc1ccccc1 [16-19]	robust effect; also recorded: significant reduction	higher concentrations	10-20 fold	lower than at the 6 h but higher than at the 1 h time-point	no and did not detect differences and changes	not significantly elevated	not significantly elevated		
CN(CCc1ccc(Nc2nc(-c3ccccc3)cs2)cc1)Cc1ccccc1 [16-8]	significant attenuation; also recorded: significant reduction				no and did not detect differences and changes	not significantly elevated	not significantly elevated	> 50%	above its IC50
